Consider 31 compounds from patent publication US20080051419A1, “AMINE DERIVATIVES USEFUL AS ANTICANCER AGENTS” (PFIZER INC., priority 2006, published 2008).

Structures are written as SMILES. Read-outs that look alike come from different tables or passages of the source.

In this assay the target is T1, Akt1 (Homo sapiens, UniProt P31749, S473D).
T1 construct: The version of Akt used in these studies lacks the pleckstrin homology (PH) domain
Put plainly: Akt1 kinase assay, fluorescence polarization (IMAP). Type of assay: biochemical. An outline of the steps:
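His-tagged Akt1 lacking the PH domain, Thr308-prephosphorylated, 1.5 ng per reaction, with 4 μM ATP and 40 nM TAMRA-Crosstide (solution concentrations) in Tris pH 7.5/MgCl2/DTT buffer. Incubated 30 min at ambient temperature; IMAP fluorescence polarization read (544/615 nm). IC50 after subtraction of no-enzyme background.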
In general terms: Polarisation of emitted light reports the rotation of a fluorescent probe.

Where [1] appears, read: Table 1, concentration bins, read-out: Concentration Range at which exemplary compounds of formula I inhibit Akt kinase activity.
[2] abbreviates: average Akt kinase activity (IC50), read-out: Avg Akt kinase, μM (50% inhibition).
[3] abbreviates: Table 3, read-out: Avg Akt kinase, μM (50% inhibition).

T1 sequence (P31749 118-480 S473D limits assumed, species assumed): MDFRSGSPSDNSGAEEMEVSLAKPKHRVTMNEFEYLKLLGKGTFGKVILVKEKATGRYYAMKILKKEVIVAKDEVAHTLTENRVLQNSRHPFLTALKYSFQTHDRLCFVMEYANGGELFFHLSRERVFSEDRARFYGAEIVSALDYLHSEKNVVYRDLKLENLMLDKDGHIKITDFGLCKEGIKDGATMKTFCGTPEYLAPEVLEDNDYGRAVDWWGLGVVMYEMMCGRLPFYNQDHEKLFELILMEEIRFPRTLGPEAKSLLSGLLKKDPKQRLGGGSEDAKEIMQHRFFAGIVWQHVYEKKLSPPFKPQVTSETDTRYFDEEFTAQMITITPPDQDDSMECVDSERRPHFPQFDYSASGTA

Regarding `Cc1c[nH]c2ncnc(N3CC[C@](N)(CNC(=O)c4ccc(Cl)cc4)C3)c12` [Example 74, (S)—N-((3-amino-1-(5-methyl-7H-pyrrolo[2,3-d]pyrimidin-4-yl)pyrrolidin-3-yl)methyl)-4-chlorobenzamide], the IC50 is 0.0101 to 0.1 µM under setting [1] and 0.0114 µM under setting [2].

As for `Cc1c[nH]c2ncnc(N3CC[C@](N)(CNC(=O)c4c(F)cccc4F)C3)c12` [Example 126, N-{[(3S)-3-amino-1-(5-methyl-7H-pyrrolo[2,3-d]pyrimidin-4-yl)pyrrolidin-3-yl]methyl}-2,6-difluorobenzamide], the IC50 runs as follows: under setting [1], 0.0101 to 0.1 µM; under setting [2], 0.0199 µM.

Take `Cc1c[nH]c2ncnc(N3CCC(N)(CN(C)Cc4ccc(Cl)cc4)C3)c12` (centres unmarked) [Example 45, 3-{[(4-chlorobenzyl)(methyl)-amino]methyl}-1-(5-methyl-7H-pyrrolo[2,3-d]pyrimidin-4-yl)pyrrolidin-3-amine]: the IC50 runs as follows: under setting [1], 0.101 to 10 µM; under setting [3], 0.144 µM.

In the case of `Cc1c[nH]c2ncnc(N3CCC(N)(CN(CCN(C)C)C(=O)Nc4ccccc4)C3)c12` (centres unmarked) [Example 195, 1-{[3-amino-1-(5-methyl-7H-pyrrolo[2,3-d]pyrimidin-4-yl)pyrrolidin-3-yl]methyl}-1-[2-(dimethylamino)ethyl]-3-phenylurea], the IC50 runs as follows: under setting [1], 0.101 to 10 µM; (read-out: Avg Akt kinase, μM (50% inhibition)) 0.141 µM.

For `N[C@]1(CNC(=O)c2ccc(F)cc2Cl)CCN(c2ncnc3[nH]cc(Cl)c23)C1` [Example 107, N-{[(3S)-3-amino-1-(5-chloro-7H-pyrrolo[2,3-d]pyrimidin-4-yl)pyrrolidin-3-yl]methyl}-2-chloro-4-fluorobenzamide], the IC50 is 0.00025 to 0.0025 µM under setting [1] and 0.0011 µM under setting [2].

As for `CCc1c[nH]c2ncnc(N3CC[C@@](N)(CNC(=O)c4cc(C)on4)C3)c12` [Example 91], the IC50 was 0.00251 to 0.01 µM under setting [1] and 0.00392 µM under setting [2].

With `Cc1c[nH]c2ncnc(N3CCC(N)(CN4CCc5ccccc54)C3)c12` (centres unmarked) [Example 51, 3-(2,3-dihydro-1H-indol-1-ylmethyl)-1-(5-methyl-7H-pyrrolo[2,3-d]pyrimidin-4-yl)pyrrolidin-3-amine], the IC50 by setting is: under setting [1], 0.0101 to 0.1 µM; under setting [3], 0.0362 µM.

As for `Cc1c[nH]c2ncnc(N3CC[C@](N)(CNc4ccc(Cl)cc4)C3)c12` [Example 18, (3S)-3-{[(4-chlorophenyl)amino]methyl}-1-(5-methyl-7H-pyrrolo[2,3-d]pyrimidin-4-yl)pyrrolidin-3-amine], the IC50 runs as follows: under setting [1], 0.00025 to 0.0025 µM; under setting [3], 0.002 µM.

For the compound `N[C@]1(CNC(=O)c2ccccc2Cl)CCN(c2ncnc3[nH]cc(Cl)c23)C1` [Example 85, N-{[(3S)-3-amino-1-(5-chloro-7H-pyrrolo[2,3-d]pyrimidin-4-yl)pyrrolidin-3-yl]methyl}-2-chlorobenzamide], the IC50 was 0.00251 to 0.01 µM under setting [1] and 0.00643 µM under setting [2].

For `CCc1c[nH]c2ncnc(N3CCC(N)(CNc4cccc(C(F)(F)F)c4)C3)c12` (centres unmarked) [Example 9], the IC50 reads like this: under setting [1], 0.00025 to 0.0025 µM; under setting [3], 0.002 µM.

Turning to `N#Cc1c[nH]c2ncnc(N3CC[C@](N)(CNC(=O)c4ccc(Cl)cc4)C3)c12` [Example 86], the IC50 under setting [1] lay within 0.0101 to 0.1 µM and the IC50 under setting [2] stood at 0.0175 µM.

Take `Cc1c[nH]c2ncnc(N3CCC(N)(CNCC4CC4)C3)c12` (centres unmarked) [Example 54, 3-{[(cyclopropylmethyl)amino]methyl}-1-(5-methyl-7H-pyrrolo[2,3-d]pyrimidin-4-yl)pyrrolidin-3-amine]: the IC50 was 0.101 to 10 µM under setting [1] and 0.739 µM under setting [3].

For the compound `Cc1c[nH]c2ncnc(N3CC[C@](N)(CNC(=O)c4cccc(F)c4Cl)C3)c12` [Example 123, N-{[(3S)-3-amino-1-(5-methyl-7H-pyrrolo[2,3-d]pyrimidin-4-yl)pyrrolidin-3-yl]methyl}-2-chloro-3-fluorobenzamide], the IC50 by setting is: under setting [1], 0.00251 to 0.01 µM; under setting [2], 0.00526 µM.

Turning to `Cc1c[nH]c2ncnc(N3CCC(N)(CNc4cccc(Cl)c4Cl)C3)c12` (centres unmarked) [Example 26, 3-{[(2,3-dichlorophenyl)amino]methyl}-1-(5-methyl-7H-pyrrolo[2,3-d]pyrimidin-4-yl)pyrrolidin-3-amine], the IC50 is, setting by setting: under setting [1], 0.00025 to 0.0025 µM; under setting [3], 0.002 µM.

Take `CCc1c[nH]c2ncnc(N3CC[C@](N)(CNC(=O)c4cccc(C)c4Cl)C3)c12` [Example 118]: the IC50 is, setting by setting: under setting [1], 0.0101 to 0.1 µM; under setting [2], 0.0124 µM.

As for `Cc1cc(CNC[C@@]2(N)CCN(c3ncnc4[nH]cc(C)c34)C2)no1` [Example 53, (3S)-3-({[(5-methylisoxazol-3-yl)methyl]amino}methyl)-1-(5-methyl-7H-pyrrolo[2,3-d]pyrimidin-4-yl)pyrrolidin-3-amine], the IC50 runs as follows: under setting [1], 0.0101 to 0.1 µM; under setting [3], 0.0293 µM.

`Cc1c[nH]c2ncnc(N3CCC(N)(CNc4cccc(F)c4F)C3)c12` (centres unmarked) [Example 32, 3-{[(2,3-difluorophenyl)amino]methyl}-1-(5-methyl-7H-pyrrolo[2,3-d]pyrimidin-4-yl)pyrrolidin-3-amine]: the IC50 is 0.0101 to 0.1 µM under setting [1] and 0.0105 µM under setting [3].

In the case of `CCc1c[nH]c2ncnc(N3CC[C@](N)(CNc4cc(C)on4)C3)c12` [Example 1, N—(((S)-3-amino-1-(5-ethyl-7H-pyrrolo[2,3-d]pyrimidin-4-yl)pyrrolidin-3-yl)methyl)-5-methylisoxazol-3-amine], the IC50 under setting [1] lay within 0.0101 to 0.1 µM and the IC50 under setting [3] stood at 0.0154 µM.

With `Cc1c[nH]c2ncnc(N3CCC(N)(CNc4cccc(Cl)c4F)C3)c12` (centres unmarked) [Example 21, 3-{[(3-chloro-2-fluorophenyl)amino]methyl}-1-(5-methyl-7H-pyrrolo[2,3-d]pyrimidin-4-yl)pyrrolidin-3-amine], the IC50 under setting [1] lay within 0.00251 to 0.01 µM and the IC50 under setting [3] is 0.00553 µM.

For the compound `NC1(CNc2cccc(C(F)(F)F)c2)CCN(c2ncnc3[nH]cnc23)C1` (centres unmarked) [Example 14, 1-(9H-purin-6-yl)-3-({[3-(trifluoromethyl)phenyl]amino}-methyl)pyrrolidin-3-amine], the IC50 by setting is: under setting [1], 0.101 to 10 µM; under setting [3], 0.108 µM.

As to `Cc1c[nH]c2ncnc(N3CCC(N)(CNc4cccc(OC(F)(F)F)c4)C3)c12` (centres unmarked) [Example 25, 1-(5-methyl-7H-pyrrolo[2,3-d]pyrimidin-4-yl)-3-({[3-(trifluoromethoxy)phenyl]amino}methyl)pyrrolidin-3-amine], the IC50 under setting [1] is 0.0101 to 0.1 µM and the IC50 under setting [3] came to 0.0145 µM.

`CCCc1c[nH]c2ncnc(N3CC[C@@](N)(CNC(=O)c4cc(C)on4)C3)c12` [Example 95, N-{[(3R)-3-amino-1-(5-propyl-7H-pyrrolo[2,3-d]pyrimidin-4-yl)pyrrolidin-3-yl]methyl}-5-methylisoxazole-3-carboxamide]: the IC50 under setting [1] was in the range of 0.00251 to 0.01 µM and the IC50 under setting [2] was found to be 0.00433 µM.

On to `N#Cc1n[nH]c2ncnc(N3CCC(N)(CNc4cccc(Cl)c4F)C3)c12` (centres unmarked) [Example 7, 4-(3-amino-3-((3-chloro-2-fluorophenylamino)methyl)pyrrolidin-1-yl)-1H-pyrazolo[3,4-d]pyrimidine-3-carbonitrile], for which the IC50 is 0.0101 to 0.1 µM under setting [1] and 0.0523 µM under setting [3].

Consider `Cc1c[nH]c2ncnc(N3CCC(N)(CNc4ccc(F)cc4F)C3)c12` (centres unmarked) [Example 34, 3-{[(2,4-difluorophenyl)amino]methyl}-1-(5-methyl-7H-pyrrolo[2,3-d]pyrimidin-4-yl)pyrrolidin-3-amine], for which the IC50 was 0.00251 to 0.01 µM under setting [1] and 0.00771 µM under setting [3].

In the case of `CCN(CC1(N)CCN(c2ncnc3[nH]cc(C)c23)C1)c1ccccc1` (centres unmarked) [Example 50, 3-{[ethyl(phenyl)amino]methyl}-1-(5-methyl-7H-pyrrolo[2,3-d]pyrimidin-4-yl)pyrrolidin-3-amine], the IC50 is 0.101 to 10 µM under setting [1] and 0.116 µM under setting [3].

As to `Cc1c[nH]c2ncnc(N3CC[C@](N)(CNC(=O)c4ccccc4)C3)c12` [Example 109, N-{[(3S)-3-amino-1-(5-methyl-7H-pyrrolo[2,3-d]pyrimidin-4-yl)pyrrolidin-3-yl]methyl}benzamide], the IC50 reads like this: under setting [1], 0.00251 to 0.01 µM; under setting [2], 0.00586 µM.

On to `COc1cc(NCC2(N)CCN(c3ncnc4[nH]cc(C)c34)C2)cc(C(F)(F)F)c1` (centres unmarked) [Example 30, 3-({[3-methoxy-5-(trifluoromethyl)phenyl]amino}-methyl)-1-(5-methyl-7H-pyrrolo[2,3-d]pyrimidin-4-yl)pyrrolidin-3-amine], for which the IC50 by setting is: under setting [1], 0.0101 to 0.1 µM; under setting [3], 0.0135 µM.

As for `N[C@]1(CNC(=O)c2cccc(F)c2F)CCN(c2ncnc3[nH]cc(Cl)c23)C1` [Example 81, N-{[(3S)-3-amino-1-(5-chloro-7H-pyrrolo[2,3-d]pyrimidin-4-yl)pyrrolidin-3-yl]methyl}-2,3-difluorobenzamide], the IC50 runs as follows: under setting [1], 0.00251 to 0.01 µM; under setting [2], 0.00346 µM.

For the compound `Cc1c[nH]c2ncnc(N3CCC(N)(CN(C)c4ccccc4)C3)c12` (centres unmarked) [Example 48, 3-{[methyl(phenyl)amino]methyl}-1-(5-methyl-7H-pyrrolo[2,3-d]pyrimidin-4-yl)pyrrolidin-3-amine], the IC50 is, setting by setting: under setting [1], 0.101 to 10 µM; under setting [3], 0.12 µM.

Regarding `Cc1c[nH]c2ncnc(N3CC[C@](N)(COc4cccc(C(F)(F)F)c4)C3)c12` [Example 61, (3R)-1-(5-methyl-7H-pyrrolo[2,3-d]pyrimidin-4-yl)-3-{[3-(trifluoromethyl)-phenoxy]methyl}pyrrolidin-3-amine], the IC50 reads like this: under setting [1], 0.0101 to 0.1 µM; (Table 4, read-out: Avg Akt kinase, μM (50% inhibition)) 0.0335 µM.

With `CCc1c[nH]c2ncnc(N3CC[C@](N)(CNC(=O)c4ccc(F)cc4)C3)c12` [Example 93], the IC50 is 0.00025 to 0.0025 µM under setting [1] and 0.00191 µM under setting [2].
